# Several values for one entry are separate records, joined by “and”; a condition that tells them apart may be missing. Equal entries are not always repeated. Where two headings read alike, the source gives them in different places.
# What was measured:
# [1] = Study 1 Cohort 2: single dose entrectinib alone or with rifampin, plasma pharmacokinetics; conditions: for t1/2 / half-life / AUCinf / Cmax: geometric mean (geometric CV); for M5/Entrectinib ratio, AUCinf / M5/Entrectinib ratio, Cmax: arithmetic mean (CV)
# Protocol: (§1) All doses of study medication were administered at the study center.
# [2] = Metabolic profile of entrectinib in human hepatocytes
# [3] = Metabolic profile of entrectinib in pooled human liver microsomes
# [4] = Study 1 Cohort 1: single dose entrectinib alone or with itraconazole, plasma pharmacokinetics; conditions: for M5/Entrectinib ratio, AUCinf / M5/Entrectinib ratio, Cmax: arithmetic mean (CV)
# Protocol: as §1
# CYP3A4 = CYP3A4 (Homo sapiens, UniProt P08684); assay: Metabolism by recombinantly expressed CYP enzymes; set-up: key to the marks not given beside the values
# CYP1A1 = molecular target: T1, CYP1A1 (Homo sapiens, UniProt P04798); assay: Metabolism by recombinantly expressed CYP enzymes; set-up: Entrectinib Metabolism to M5: key to the marks not given beside the values
# T1 sequence (P04798 1-512): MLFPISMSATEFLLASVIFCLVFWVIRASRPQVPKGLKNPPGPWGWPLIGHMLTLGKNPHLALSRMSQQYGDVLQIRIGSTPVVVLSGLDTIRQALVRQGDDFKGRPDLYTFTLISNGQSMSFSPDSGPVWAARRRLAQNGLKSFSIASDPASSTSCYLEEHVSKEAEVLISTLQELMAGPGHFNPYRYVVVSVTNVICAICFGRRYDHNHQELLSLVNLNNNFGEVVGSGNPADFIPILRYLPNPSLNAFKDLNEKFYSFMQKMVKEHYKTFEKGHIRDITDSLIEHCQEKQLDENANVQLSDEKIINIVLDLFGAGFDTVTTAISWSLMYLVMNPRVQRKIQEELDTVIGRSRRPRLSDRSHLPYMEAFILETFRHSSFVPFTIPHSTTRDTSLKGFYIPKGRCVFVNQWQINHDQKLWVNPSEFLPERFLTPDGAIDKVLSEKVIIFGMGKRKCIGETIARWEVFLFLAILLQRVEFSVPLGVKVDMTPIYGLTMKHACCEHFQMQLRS
# CYP2D6 [5] = molecular target: T2, CYP2D6 (Homo sapiens, UniProt P10635); assay: Metabolism by recombinantly expressed CYP enzymes
# MDR1 (P-gp) = molecular target: T3, MDR1 (P-gp) (Homo sapiens, UniProt P08183); assay: In vitro P-gp inhibition; type: in vitro ADME
# T3 construct: expressed in transfected cells
# CYP2C8 = molecular target: T4, CYP2C8 (Homo sapiens, UniProt P10632); assay: In vitro CYP inhibition in human liver microsomes; type: in vitro ADME; set-up: was investigated in human liver microsomes; from tissue; host or cells: pooled human liver microsomes; conditions: for IC50: human liver microsomes
# T4 sequence (P10632 1-490): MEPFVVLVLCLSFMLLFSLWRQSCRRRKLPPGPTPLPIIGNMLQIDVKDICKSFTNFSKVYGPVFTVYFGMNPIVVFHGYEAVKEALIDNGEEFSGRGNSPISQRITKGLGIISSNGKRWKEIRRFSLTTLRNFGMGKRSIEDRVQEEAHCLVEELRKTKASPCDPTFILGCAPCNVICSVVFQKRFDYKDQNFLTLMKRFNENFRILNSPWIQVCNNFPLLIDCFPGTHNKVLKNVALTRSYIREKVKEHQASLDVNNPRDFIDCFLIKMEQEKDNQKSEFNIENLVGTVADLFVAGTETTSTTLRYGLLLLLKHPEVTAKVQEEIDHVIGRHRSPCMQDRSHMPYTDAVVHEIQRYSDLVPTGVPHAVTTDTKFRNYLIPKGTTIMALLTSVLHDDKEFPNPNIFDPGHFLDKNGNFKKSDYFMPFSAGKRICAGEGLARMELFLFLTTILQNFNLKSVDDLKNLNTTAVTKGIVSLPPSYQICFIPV
# CYP2D6 [6] = molecular target: T2, CYP2D6; assay: In vitro CYP inhibition in human liver microsomes; type: in vitro ADME; set-up: purchased Corning-Gentest
# CYP2B6 [7] = molecular target: T5, CYP2B6 (Homo sapiens, UniProt P20813); assay: In vitro CYP inhibition in human liver microsomes; type: in vitro ADME; set-up: purchased Corning-Gentest
# T5 sequence (P20813 1-491): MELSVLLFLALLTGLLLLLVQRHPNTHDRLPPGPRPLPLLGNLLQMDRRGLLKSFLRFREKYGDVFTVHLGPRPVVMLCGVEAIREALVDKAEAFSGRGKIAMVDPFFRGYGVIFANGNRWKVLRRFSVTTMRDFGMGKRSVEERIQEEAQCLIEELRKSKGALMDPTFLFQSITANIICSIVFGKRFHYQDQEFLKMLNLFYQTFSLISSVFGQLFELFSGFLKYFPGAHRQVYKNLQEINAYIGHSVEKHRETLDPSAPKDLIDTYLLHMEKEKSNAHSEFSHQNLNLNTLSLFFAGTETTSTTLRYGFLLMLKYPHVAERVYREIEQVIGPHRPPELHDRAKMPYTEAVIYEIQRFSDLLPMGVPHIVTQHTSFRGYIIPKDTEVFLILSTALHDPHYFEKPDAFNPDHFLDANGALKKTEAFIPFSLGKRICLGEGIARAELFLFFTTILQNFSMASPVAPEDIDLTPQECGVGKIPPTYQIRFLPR
# CYP2B6 [8] = molecular target: T5, CYP2B6; assay: Metabolism by recombinantly expressed CYP enzymes
# CYP3A4/5 = assay: In vitro CYP inhibition (direct and time-dependent) in human liver microsomes; type: in vitro ADME
# CYP2C19 = CYP2C19 (Homo sapiens, UniProt P33261); assay: Metabolism by recombinantly expressed CYP enzymes; set-up: Entrectinib Metabolism to M5: key to the marks not given beside the values
# [9] = Entrectinib 600 mg with rifampin 600 mg QD
# [10] = Entrectinib 100 mg alone, geometric mean (geometric CV)
# [11] = Entrectinib 100 mg with itraconazole 200 mg QD, geometric mean (geometric CV)
# [12] = Entrectinib 600 mg with rifampin
# [13] = Entrectinib 100 mg with itraconazole
# Sequence of CYP2C19 (P33261 whole entry): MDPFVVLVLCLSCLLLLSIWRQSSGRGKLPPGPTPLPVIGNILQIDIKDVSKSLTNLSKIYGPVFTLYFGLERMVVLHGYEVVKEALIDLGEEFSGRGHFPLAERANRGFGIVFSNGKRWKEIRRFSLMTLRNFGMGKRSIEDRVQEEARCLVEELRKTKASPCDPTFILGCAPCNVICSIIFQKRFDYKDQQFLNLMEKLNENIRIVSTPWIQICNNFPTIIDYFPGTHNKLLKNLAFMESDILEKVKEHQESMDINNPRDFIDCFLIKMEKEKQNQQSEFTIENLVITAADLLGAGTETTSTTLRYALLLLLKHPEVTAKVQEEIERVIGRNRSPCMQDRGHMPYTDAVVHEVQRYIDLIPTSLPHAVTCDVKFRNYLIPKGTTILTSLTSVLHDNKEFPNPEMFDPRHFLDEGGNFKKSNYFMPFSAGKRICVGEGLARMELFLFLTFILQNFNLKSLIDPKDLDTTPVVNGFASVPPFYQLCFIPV
# Sequence of CYP3A4 (P08684 whole entry): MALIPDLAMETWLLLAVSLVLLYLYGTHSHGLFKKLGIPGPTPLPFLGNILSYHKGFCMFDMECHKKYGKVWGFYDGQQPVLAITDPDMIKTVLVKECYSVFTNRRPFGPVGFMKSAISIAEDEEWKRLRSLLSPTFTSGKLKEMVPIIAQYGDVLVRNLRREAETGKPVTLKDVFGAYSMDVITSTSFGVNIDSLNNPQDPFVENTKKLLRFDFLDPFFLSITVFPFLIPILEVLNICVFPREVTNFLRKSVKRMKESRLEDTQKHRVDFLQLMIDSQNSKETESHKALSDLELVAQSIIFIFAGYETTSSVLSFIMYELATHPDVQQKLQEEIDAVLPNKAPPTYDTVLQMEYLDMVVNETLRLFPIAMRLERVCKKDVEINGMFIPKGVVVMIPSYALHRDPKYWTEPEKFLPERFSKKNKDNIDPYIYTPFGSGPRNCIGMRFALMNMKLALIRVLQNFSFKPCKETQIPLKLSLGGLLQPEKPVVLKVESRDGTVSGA
# T3 sequence (P08183 whole entry): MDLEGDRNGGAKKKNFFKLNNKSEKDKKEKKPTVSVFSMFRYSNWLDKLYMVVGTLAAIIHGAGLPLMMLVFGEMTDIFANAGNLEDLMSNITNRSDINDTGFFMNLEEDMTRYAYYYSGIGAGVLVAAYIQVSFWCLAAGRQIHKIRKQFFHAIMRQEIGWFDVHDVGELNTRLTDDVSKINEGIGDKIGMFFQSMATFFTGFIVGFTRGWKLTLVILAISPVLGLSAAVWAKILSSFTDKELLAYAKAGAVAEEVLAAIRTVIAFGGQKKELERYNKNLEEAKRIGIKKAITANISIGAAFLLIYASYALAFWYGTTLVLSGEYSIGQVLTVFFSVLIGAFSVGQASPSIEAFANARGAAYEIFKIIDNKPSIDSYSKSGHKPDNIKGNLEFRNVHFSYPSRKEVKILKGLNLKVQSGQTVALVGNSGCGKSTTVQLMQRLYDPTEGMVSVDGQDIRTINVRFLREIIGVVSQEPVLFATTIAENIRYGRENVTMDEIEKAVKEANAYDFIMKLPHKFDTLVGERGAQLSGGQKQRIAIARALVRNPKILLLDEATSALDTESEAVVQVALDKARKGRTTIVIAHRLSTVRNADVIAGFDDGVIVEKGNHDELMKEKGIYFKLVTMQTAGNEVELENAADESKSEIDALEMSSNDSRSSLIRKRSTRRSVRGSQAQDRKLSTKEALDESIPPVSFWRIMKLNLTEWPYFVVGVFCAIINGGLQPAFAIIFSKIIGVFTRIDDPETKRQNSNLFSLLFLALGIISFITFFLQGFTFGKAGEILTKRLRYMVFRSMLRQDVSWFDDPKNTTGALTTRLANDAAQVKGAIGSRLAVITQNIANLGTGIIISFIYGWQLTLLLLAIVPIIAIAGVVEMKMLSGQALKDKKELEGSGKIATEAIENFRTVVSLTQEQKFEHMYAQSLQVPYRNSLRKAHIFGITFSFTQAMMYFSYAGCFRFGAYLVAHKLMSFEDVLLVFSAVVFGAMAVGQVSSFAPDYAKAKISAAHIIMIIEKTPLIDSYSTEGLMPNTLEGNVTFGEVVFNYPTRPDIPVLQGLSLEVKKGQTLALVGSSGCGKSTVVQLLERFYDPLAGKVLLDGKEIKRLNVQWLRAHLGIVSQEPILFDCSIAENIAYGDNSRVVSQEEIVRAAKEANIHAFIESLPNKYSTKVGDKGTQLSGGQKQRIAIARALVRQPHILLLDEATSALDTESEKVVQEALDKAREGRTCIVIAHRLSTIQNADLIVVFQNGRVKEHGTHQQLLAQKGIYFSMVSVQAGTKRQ
# T2 sequence (P10635 whole entry): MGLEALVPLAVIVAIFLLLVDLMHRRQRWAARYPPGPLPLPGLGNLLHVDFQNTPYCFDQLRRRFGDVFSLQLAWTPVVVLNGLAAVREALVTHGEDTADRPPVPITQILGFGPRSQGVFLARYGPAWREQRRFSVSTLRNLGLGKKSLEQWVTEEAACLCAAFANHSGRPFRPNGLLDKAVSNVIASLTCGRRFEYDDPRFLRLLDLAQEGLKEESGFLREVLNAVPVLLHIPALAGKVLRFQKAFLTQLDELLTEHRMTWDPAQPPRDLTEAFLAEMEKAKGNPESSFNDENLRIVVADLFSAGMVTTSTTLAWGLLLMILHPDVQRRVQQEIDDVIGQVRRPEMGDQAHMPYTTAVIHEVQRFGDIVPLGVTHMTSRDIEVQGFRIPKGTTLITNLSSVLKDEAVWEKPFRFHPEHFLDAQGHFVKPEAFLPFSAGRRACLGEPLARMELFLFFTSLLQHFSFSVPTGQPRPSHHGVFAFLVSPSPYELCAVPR
structure (smiles),measurement,setting,value
CN1CCN(c2ccc(C(=O)Nc3n[nH]c4ccc(Cc5cc(F)cc(F)c5)cc34)c(NC3CCOCC3)c2)CC1 [Entrectinib],t1/2,[1]; Entrectinib 600 mg alone,16.7 (16%) h
same,t1/2,[1]; [9],9.9 (26%) h
same,decrease of AUCinf,[1]; entrectinib coadministered with rifampin vs alone,77%
same,Tmax,"[1]; human, in vivo, 600 mg","2.0 (2.0, 5.0) h"
same,Tmax,"[1]; human, in vivo, 600 mg, Tmax",3.5 h
same,half-life,"[1]; human, in vivo, 600 mg, t1/2, Entrectinib 600 mg alone",17 h
same,half-life,"[1]; human, in vivo, 600 mg, t1/2, Entrectinib 600 mg with rifampin 600 mg QD",10 h
same,drug metabolized,[2]; after 120 min of incubation,29%
same,parent remained,"[3]; 60 min incubation, pooled human liver microsomes with NADPH",47%
same,t1/2,[4]; [10],20.2 (17%) h
same,t1/2,[4]; [11],49.8 (22%) h
same,increase of AUCinf,[4]; entrectinib coadministered with itraconazole vs alone,504%
same,Tmax,"[4]; human, in vivo",5 h
same,AUC(0-inf),"[4]; human, in vivo, 100 mg",6.19 µM·h
same,Cmax,"[4]; human, in vivo, 100 mg",358 nM
same,Tmax,"[4]; human, in vivo, 100 mg",2 h
same,half-life,"[4]; human, in vivo, 100 mg, t1/2, Entrectinib 100 mg alone, geometric mean (geometric CV)",20 h
same,half-life,"[4]; human, in vivo, t1/2, Entrectinib 100 mg with itraconazole 200 mg QD, geometric mean (geometric CV)",50 h
same,median Tmax later,[4]; with itraconazole vs entrectinib alone,approximately 3 h
same,Entrectinib Metabolism to M5,CYP3A4,+++
same,Entrectinib Metabolism to other Products,CYP3A4,+++
same,Entrectinib Metabolism to M5,CYP1A1,++
same,Entrectinib Metabolism to other Products,CYP1A1,+
same,Entrectinib Metabolism to M5,CYP2D6 [5],+
same,Entrectinib Metabolism to other Products,CYP2D6 [5],-
same,IC50,MDR1 (P-gp),1.33 µM and 1.3 µM
same,IC50,CYP2C8,> 10 µM
same,IC50,CYP2D6 [6],> 10 µM
same,IC50,CYP2B6 [7],> 10 µM
same,Entrectinib Metabolism to M5,CYP2B6 [8],-
same,Entrectinib Metabolism to other Products,CYP2B6 [8],-
same,IC50,"CYP3A4/5; human, microsomes",2 µM
same,Entrectinib Metabolism to M5,CYP2C19,++
same,Entrectinib Metabolism to other Products,CYP2C19,-
O=C(Nc1n[nH]c2ccc(Cc3cc(F)cc(F)c3)cc12)c1ccc(N2CCNCC2)cc1NC1CCOCC1 [M5],AUCinf,"[1]; Entrectinib 600 mg alone, single dose, healthy subjects, fasted","11,000 (44%) nM•h"
same,"M5/Entrectinib ratio, AUCinf",[1]; Entrectinib 600 mg alone,0.337 (56%)
same,"M5/Entrectinib ratio, Cmax",[1]; Entrectinib 600 mg alone,0.234 (59%)
same,Cmax,[1]; Entrectinib 600 mg alone,383 nM
same,t1/2,[1]; Entrectinib 600 mg alone,33.8 (12%) h
same,Tmax,"[1]; Entrectinib 600 mg alone, median (minimum, maximum)","5.0 (4.0, 5.0) h"
same,AUCinf,[1]; [9],1530 (28%) nM•h
same,Cmax,[1]; [9],108 nM
same,t1/2,[1]; [9],31.1 (28%) h
same,Tmax,"[1]; Entrectinib 600 mg with rifampin 600 mg QD, median (minimum, maximum)","3.0 (2.0, 6.0) h"
same,"M5/Entrectinib ratio, AUCinf",[1]; [12],0.187 (28%)
same,"M5/Entrectinib ratio, Cmax",[1]; [12],0.136 (23%)
same,M5 exposure as share of entrectinib exposure (mean M5/entrectinib ratio for AUCinf),[1]; entrectinib 600 mg alone,approximately 34%
same,M5 exposure as share of entrectinib exposure (mean M5/entrectinib ratio for AUCinf),[1]; entrectinib 600 mg coadministered with rifampin,19%
same,mean t1/2,[1]; following entrectinib alone and with rifampin,31 to 34 h
same,share of entrectinib metabolism,[2],41%
same,share of total drug-related material,[2],12%
same,share of [14C]entrectinib-derived radioactivity,[3]; human liver microsomes,28%
same,AUCinf,"[4]; Entrectinib 100 mg alone, single dose, healthy subjects, fasted, geometric mean (geometric CV)",1710 (30%) nM•h
same,"M5/Entrectinib ratio, AUCinf",[4]; Entrectinib 100 mg alone,0.288 (28%)
same,"M5/Entrectinib ratio, Cmax",[4]; Entrectinib 100 mg alone,0.151 (26%)
same,Cmax,[4]; [10],52.3 nM
same,t1/2,[4]; [10],41 h and 40.8 (22%) h
same,Tmax,"[4]; Entrectinib 100 mg alone, median (minimum, maximum)","5.0 (3.0, 5.0) h"
same,AUCinf,[4]; [11],4310 (30%) nM•h
same,Cmax,[4]; [11],31.5 nM
same,t1/2,[4]; [11],88.0 (32%) h
same,Tmax,"[4]; Entrectinib 100 mg with itraconazole 200 mg QD, median (minimum, maximum)","6.0 (5.0, 48.0) h"
same,"M5/Entrectinib ratio, AUCinf",[4]; [13],0.124 (29%)
same,"M5/Entrectinib ratio, Cmax",[4]; [13],0.0538 (34%)
same,increase in AUCinf,[4]; coadministration of itraconazole with entrectinib,approximately 2.5 fold
same,M5 exposure as share of entrectinib exposure (mean M5/entrectinib ratio for AUCinf),[4]; entrectinib 100 mg alone,approximately 29%
same,M5 exposure as share of entrectinib exposure (mean M5/entrectinib ratio for AUCinf),[4]; entrectinib 100 mg coadministered with itraconazole,12%
same,M5 Metabolism,CYP3A4,+++
same,M5 Metabolism,CYP1A1,+
same,M5 Metabolism,CYP2D6 [5],-
same,IC50,MDR1 (P-gp),10.1 µM and 10 µM
same,free Cmax lower than the CYP2C8 IC50,CYP2C8; free Cmax 0.0134 μM vs IC50 about 4.9 μM,> 300 fold
same,IC50,CYP2C8,~4.9 µM and 4.9 µM
same,IC50,CYP2D6 [6],> 10 µM
same,IC50,CYP2B6 [7],> 10 µM
same,M5 Metabolism,CYP2B6 [8],-
same,IC50,"CYP3A4/5; human liver microsomes, read-out: IC50",> 10 µM
same,M5 Metabolism,CYP2C19,-

# — article PMC8763936 (Investigational New Drugs, 2021)
